From ChEMBL document CHEMBL1138016, “Azaadamantane benzamide 5-HT4 agonists: gastrointestinal prokinetic SC-54750” (Bioorg Med Chem Lett, 2004) come the findings set out here.

Assay [1] in a line: Concentration required for inhibition of 5-hydroxytryptamine 3 receptor using [3H]GR-65630 as the radioligand.
In assay [2] the target is T1, Adrenergic receptor alpha-2 (Homo sapiens, UniProt P08913+P18825+P18089).
T1 sequence (P08913 whole entry): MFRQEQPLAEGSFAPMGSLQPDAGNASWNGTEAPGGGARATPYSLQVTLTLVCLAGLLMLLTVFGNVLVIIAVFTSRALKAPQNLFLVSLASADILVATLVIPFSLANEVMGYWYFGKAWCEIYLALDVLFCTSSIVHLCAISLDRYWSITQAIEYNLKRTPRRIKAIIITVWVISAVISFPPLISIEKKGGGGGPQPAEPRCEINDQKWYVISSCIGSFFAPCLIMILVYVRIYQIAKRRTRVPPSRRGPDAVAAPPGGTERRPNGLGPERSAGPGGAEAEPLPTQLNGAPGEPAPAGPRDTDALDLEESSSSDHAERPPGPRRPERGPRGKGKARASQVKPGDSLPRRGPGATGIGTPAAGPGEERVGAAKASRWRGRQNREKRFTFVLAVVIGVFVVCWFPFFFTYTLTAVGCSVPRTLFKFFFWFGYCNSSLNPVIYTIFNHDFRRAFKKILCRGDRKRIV
T1 sequence (P18825 whole entry): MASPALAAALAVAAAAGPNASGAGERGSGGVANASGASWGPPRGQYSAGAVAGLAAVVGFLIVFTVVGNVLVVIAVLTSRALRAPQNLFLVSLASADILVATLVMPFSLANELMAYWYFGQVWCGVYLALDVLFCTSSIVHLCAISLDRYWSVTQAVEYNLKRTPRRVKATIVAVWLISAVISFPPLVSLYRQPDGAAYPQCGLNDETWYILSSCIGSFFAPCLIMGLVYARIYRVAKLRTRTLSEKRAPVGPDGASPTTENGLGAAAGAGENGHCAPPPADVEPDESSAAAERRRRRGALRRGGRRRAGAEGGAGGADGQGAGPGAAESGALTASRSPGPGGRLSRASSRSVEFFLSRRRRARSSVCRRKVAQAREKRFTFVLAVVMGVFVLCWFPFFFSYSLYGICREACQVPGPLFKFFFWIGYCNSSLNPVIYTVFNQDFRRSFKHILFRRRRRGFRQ
T1 sequence (P18089 whole entry): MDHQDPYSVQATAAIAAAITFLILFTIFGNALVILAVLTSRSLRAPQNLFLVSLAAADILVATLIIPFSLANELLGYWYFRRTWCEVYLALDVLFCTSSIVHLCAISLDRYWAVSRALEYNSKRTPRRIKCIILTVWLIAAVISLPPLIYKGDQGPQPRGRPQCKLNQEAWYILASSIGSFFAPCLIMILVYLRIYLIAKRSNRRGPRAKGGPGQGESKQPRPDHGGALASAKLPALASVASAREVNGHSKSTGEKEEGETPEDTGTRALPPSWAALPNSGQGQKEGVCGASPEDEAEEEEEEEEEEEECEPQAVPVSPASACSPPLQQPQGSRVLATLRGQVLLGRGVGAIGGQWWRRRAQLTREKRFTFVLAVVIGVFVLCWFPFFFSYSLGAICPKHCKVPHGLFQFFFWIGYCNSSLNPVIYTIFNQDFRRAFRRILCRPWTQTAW
Nature of the assay: Concentration required for inhibition of alpha-2 adrenergic receptor. The class given is protein assay.

The target in assay [3] is T2, Serotonin 3 (5-HT3) receptor (Rattus norvegicus, UniProt P35563+Q9JJ16).
T2 sequence (P35563 whole entry): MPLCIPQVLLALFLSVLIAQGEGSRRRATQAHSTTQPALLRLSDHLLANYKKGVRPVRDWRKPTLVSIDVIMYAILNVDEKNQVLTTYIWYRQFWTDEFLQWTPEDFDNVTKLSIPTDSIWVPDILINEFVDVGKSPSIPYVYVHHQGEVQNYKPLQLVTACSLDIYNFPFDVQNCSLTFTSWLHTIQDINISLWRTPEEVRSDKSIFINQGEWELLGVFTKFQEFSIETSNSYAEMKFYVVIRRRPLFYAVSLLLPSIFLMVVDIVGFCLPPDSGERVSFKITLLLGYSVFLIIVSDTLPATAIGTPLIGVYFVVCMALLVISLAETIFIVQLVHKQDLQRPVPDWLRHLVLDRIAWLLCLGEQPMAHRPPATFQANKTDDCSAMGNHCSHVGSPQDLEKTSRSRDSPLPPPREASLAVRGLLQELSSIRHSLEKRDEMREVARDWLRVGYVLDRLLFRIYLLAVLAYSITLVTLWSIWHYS
T2 sequence (Q9JJ16 whole entry): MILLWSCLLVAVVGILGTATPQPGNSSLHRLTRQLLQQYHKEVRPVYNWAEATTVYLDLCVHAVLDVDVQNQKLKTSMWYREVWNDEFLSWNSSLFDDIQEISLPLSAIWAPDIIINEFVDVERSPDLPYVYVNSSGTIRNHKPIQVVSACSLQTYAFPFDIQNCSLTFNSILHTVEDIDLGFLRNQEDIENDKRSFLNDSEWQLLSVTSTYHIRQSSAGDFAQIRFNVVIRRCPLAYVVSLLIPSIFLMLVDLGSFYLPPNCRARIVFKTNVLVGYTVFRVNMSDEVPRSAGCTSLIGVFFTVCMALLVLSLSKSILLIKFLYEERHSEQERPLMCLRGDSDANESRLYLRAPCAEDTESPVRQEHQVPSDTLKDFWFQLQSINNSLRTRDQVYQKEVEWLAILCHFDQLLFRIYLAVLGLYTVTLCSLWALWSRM
Nature of the assay: Binding affinity towards 5-hydroxytryptamine 3 receptor using [3H]GR-65630 as the radioligand in male rat cortical tissue. The class given is protein-complex assay.

Assay [4] deals with Serotonin 2 (5-HT2) receptor (Homo sapiens, UniProt P41595+P28223+P28335). The format is protein assay.

Each structure is given as a SMILES string.

Usually IC50 stands for the concentration that inhibits the measured activity by half. For orientation: Ki means the dissociation constant of the complex between target and ligand, obtained from inhibition or displacement. A lower Ki goes with higher affinity. As to `COc1cc(N)c(Cl)cc1C(=O)NCC1C2CC3CC1CN(C3)C2` (stereo in doubt; 9c), the figures for the half-inhibitory concentration (IC50) in assay [1], in assay [2] and in assay [4] were 3.5 nM, more than 10000 nM and more than 10000 nM, respectively. The same compound came in with a Ki in assay [3] of 25.4 nM.
Take `COc1cc(N)c(Cl)cc1C(=O)NC1C2CC3CC1CN(C3)C2` (stereo in doubt; 9b): the IC50 in assay [1] was 18 nM; in assay [2], more than 10000 nM; in assay [4], more than 10000 nM. In assay [3], this compound yielded an inhibition constant Ki of 9 nM.
As to `COc1cc(N)c(Cl)cc1C(=O)NC1C2CC3CC1CN(C3)C2` (stereo in doubt; 9a), the IC50 in assay [1] was 672 nM; in assay [2], 6400 nM; in assay [4], 1800 nM. The compound further displayed an inhibitory constant (Ki) in assay [3] of 336 nM.
